Measurements as given in patent publication US20170209544A1, “A PEPTIDE THERAPY TO COUNTERACT INSULIN RESISTANCE AND TYPE 2 DIABETES” (The Regents of the University of California, priority 2014, published 2017).
Where no end group is shown, it is not given here.

Tests used:
Bip/GRP78 = Bip/GRP78 (Mus musculus, UniProt P20029); assay: Pull down assay using biotinylated PST; format: binding
Excerpt: PST interacts with ER chaperone, GRP78/BiP. […] Moreover, PST inhibits GRP78's ATPase enzymatic activity, and impairs its biosynthetic response to UPR activation. PST as an inhibitor of ATPase activity augments expression of gluconeogenic gene and G6Pase. GRP78 over-expression antagonizes this PST action.

KO-NCD mice = assay: GTT in NCD-fed Chga-KO mice (acute and chronic); format: in vivo
Procedure: For glucose tolerance tests (GTT), glucose (1 mg/g) was injected intraperitoneally (IP-GTT) (at time zero) or gavaged orally (O-GTT) after a 12-hours fast. Tail-vein glucose levels were measured at −30, 0, 15, 30, 60, 90, and 120 minutes. For insulin tolerance tests (ITT), insulin (0.4 mU/g) was injected intraperitoneally and blood glucose levels were measured at the indicated time points. Chronic PST (5 μg/g/day) and PSTv1 (10 μg/day) treatments were carried out for 15 days. For acute treatment, either peptides or saline were injected 30 minutes before glucose or insulin injection. Synergy Software Kaleidagraph Version 4.0 calculated the area under the curve (AUC) for each line curve.
To determine acute effects, NCD fed Chga-KO mice (KO-NCD) were fasted for 12 hrs, treated with saline, PST (5 μg/g BW), PSTv1 (10 μg/g BW) or PST+PSTv1 for 30 min (−30 min) before injecting glucose (0 min) for (FIG. 14A) IP-GTT (2-way ANOVA: Treatment (Sal vs PST), p<0.0001, Time, p<0.0001; Interaction, p<0.002; Treatment (PST vs PSTv1), p<0.0001; Time, p<0.0001; Interaction, p<0.005; n=7). The corresponding AUC is shown in (FIG. 14B). […]

KO-DIO mice = assay: Immunoblot of signaling in PST-treated KO-DIO mice; format: in vivo
Procedure: Tissues were homogenized in a buffer containing phosphatase and protease inhibitors. Homogenates were subjected to SDS-PAGE and immunoblotted. Primary antibodies for phosphorylated and total Akt, AMPK, FoxO1, and JNK were from Cell Signaling Technology (Beverly, Mass.). Actin and Srebp-1 antibodies were from Santa Cruz Biotechnology (CA).
Phosphorylation and activation of Akt, an important component of the insulin signaling pathway was analyzed by Western blot. […] Weight-matched saline-treated WT-DIO or KO-DIO and PST-treated KO-DIO mice were fasted for 12 hrs, injected with insulin (0.4 mU/g BW, IP) for 10 min and sacrificed for tissue collection. Tissues were homogenized, lysates were subjected to SDS-PAGE and immunoblotted for p-Akt in muscle (14A, n=4), WAT (14B, n=4) and liver (14C, n=4) and for p-AMPK in muscle (14D), WAT (14E) and liver (14F). “*” Denotes comparison between the indicated groups. “*”: P<0.05, “**”: p<0.01, “***”: p<0.001.
The insulin-stimulated phosphorylation of FoxO1, downstream of Akt (82 kDa pFoxO1 and 95 kDa pFoxO1), in KO-DIO mice was higher in WAT and the liver than corresponding insulin-treated WT-DIO tissues (FIGS. 16A and 16B). Weight-matched saline-treated WT-DIO or KO-DIO and PST-treated KO-DIO mice were fasted for 12 hrs, injected with insulin (0.4 mU/g BW, IP) for 10 min and sacrificed for tissue collection. Tissues were homogenized, lysates were subjected to SDS-PAGE and subsequently immunoblotted to detect phospho-p95-FoxO1 and phospho-p82-FoxO1 signals in WAT (16A, n=4) and phospho-p82-FoxO1 signals in liver (16B, n=4), phospho-p54-Jnk and phospho-p46-Jnk signals in WAT (16C, n=4) and liver (16D, n=4), and p125-Srebp-1 and p-68-Srebp-1 (mature) signals in liver (16E, n=4). “*” Denotes comparison between the indicated groups. “*”: P<0.05, “**”: p<0.01, “***”: p<0.001.

3T3-L1 adipocytes = assay: Insulin-stimulated glucose uptake in adipocytes; format: cell-based; settings: 3T3-L1 adipocytes in culture; without any PST variant present
Excerpt: Mutant PST peptides were synthesized and screened. The peptides were synthesized as various deletion peptides of PST. Native PST (SEQ ID NO. 2) inhibited insulin-stimulated glucose uptake and leptin production in adipocytes. The inventors tested various deletion mutant PST peptides whether one or more of them would compete and prevent native PST action in adipocytes.

Sequence of Bip/GRP78 (P20029 20-655): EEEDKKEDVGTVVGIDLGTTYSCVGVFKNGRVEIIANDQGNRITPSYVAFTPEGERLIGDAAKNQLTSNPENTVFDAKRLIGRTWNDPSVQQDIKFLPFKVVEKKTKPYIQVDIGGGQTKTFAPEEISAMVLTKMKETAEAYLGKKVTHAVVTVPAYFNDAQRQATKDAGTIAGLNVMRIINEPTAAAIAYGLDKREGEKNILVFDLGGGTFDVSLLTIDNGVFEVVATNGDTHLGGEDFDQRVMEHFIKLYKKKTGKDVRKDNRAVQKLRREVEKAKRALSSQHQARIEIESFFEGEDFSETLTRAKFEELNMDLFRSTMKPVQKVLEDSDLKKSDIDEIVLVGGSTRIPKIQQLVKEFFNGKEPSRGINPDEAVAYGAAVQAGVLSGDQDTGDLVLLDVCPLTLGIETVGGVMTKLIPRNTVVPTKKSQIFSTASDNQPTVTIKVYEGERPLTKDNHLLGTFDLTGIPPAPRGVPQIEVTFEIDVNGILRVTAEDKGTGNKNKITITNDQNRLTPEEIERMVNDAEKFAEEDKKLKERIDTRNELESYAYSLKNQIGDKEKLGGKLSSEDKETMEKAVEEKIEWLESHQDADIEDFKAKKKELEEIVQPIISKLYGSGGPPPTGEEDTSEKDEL

PEGKGEQEHSQQKEEEEEMAVVPQGLFRG-amide (PEGKGEQEHSQQKEEEEEMAVVPQGLFRG-NH2) [PST, Wild-type human pancreastatin, a chromogranin A derived peptide]
binding to ER chaperone Bip/GRP78 (Bip/GRP78): binds
blood glucose after acute PST treatment (KO-NCD mice; acute, Chga-KO mice on normal chow diet): induces hyperglycemia
insulin sensitivity (GTT) (KO-NCD mice; chronic PST 5 μg/g BW for 15 days, Chga-KO mice on NCD): induced insulin resistance
FoxO1 signaling in WAT (KO-DIO mice; WAT): modulated
increased insulin-stimulated pFoxO1-p95 signals in WAT (KO-DIO mice; WAT): reversed
hepatic AMPK, FoxO1 or Jnk signaling (KO-DIO mice; liver): did not alter
Srebp-1c p68 to p125 ratio (KO-DIO mice; liver, compared to untreated KO-DIO): decreased
AMPK signaling (KO-DIO mice; muscle, WAT and liver): did not change the overall pattern
stimulation of Akt phosphorylation by insulin (KO-DIO mice; muscle, WAT and liver): completely inhibited
inhibition of insulin-stimulated glucose uptake (3T3-L1 adipocytes): 35%
